From ChEMBL document CHEMBL6182949 (J Med Chem, 2025)

Legend:
[1] = target: T1, Protein cereblon/Interleukin-1 receptor-associated kinase 4 (Homo sapiens, UniProt Q9NWZ3+Q96SW2); assay: PROTAC activity at CRBN/IRAK4 in human THP-1 cells assessed as induction of IRAK4 degradation incubated for 24 hrs by HiBiT lytic reagent based analysis; type: cell-based
Target sequence in this assay (Q9NWZ3 whole entry): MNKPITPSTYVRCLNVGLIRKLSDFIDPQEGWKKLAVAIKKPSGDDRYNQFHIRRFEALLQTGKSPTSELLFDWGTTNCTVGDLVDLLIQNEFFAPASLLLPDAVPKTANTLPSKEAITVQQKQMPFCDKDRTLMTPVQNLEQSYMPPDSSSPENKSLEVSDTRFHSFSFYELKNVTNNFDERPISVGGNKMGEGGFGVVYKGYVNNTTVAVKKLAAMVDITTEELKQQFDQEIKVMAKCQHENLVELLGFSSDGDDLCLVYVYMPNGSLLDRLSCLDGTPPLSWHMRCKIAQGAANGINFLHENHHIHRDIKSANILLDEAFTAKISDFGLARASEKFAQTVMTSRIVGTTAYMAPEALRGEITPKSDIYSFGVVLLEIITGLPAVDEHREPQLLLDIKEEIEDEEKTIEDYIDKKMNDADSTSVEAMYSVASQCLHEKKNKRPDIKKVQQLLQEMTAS
Target sequence in this assay (Q96SW2 whole entry): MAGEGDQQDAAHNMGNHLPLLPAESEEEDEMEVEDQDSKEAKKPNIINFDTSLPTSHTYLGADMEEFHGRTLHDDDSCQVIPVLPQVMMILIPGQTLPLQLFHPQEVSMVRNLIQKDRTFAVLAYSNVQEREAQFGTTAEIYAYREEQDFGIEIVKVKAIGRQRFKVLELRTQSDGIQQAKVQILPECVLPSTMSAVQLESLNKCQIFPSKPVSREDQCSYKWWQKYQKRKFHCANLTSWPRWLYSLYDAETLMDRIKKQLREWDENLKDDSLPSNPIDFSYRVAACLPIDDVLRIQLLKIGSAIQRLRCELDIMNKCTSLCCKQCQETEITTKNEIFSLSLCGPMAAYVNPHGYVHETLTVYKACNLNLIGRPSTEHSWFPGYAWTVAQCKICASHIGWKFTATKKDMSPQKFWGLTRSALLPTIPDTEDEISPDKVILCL

[2] = target: Voltage-gated inwardly rectifying potassium channel KCNH2 (Homo sapiens, UniProt Q12809); assay: Inhibition of hERG expressed in HEK293 cells by manual patch clamp assay; type: toxicity, cell-based; parameters: concentration or dose not given beside the values
Sequence of Voltage-gated inwardly rectifying potassium channel KCNH2 (Q12809 whole entry): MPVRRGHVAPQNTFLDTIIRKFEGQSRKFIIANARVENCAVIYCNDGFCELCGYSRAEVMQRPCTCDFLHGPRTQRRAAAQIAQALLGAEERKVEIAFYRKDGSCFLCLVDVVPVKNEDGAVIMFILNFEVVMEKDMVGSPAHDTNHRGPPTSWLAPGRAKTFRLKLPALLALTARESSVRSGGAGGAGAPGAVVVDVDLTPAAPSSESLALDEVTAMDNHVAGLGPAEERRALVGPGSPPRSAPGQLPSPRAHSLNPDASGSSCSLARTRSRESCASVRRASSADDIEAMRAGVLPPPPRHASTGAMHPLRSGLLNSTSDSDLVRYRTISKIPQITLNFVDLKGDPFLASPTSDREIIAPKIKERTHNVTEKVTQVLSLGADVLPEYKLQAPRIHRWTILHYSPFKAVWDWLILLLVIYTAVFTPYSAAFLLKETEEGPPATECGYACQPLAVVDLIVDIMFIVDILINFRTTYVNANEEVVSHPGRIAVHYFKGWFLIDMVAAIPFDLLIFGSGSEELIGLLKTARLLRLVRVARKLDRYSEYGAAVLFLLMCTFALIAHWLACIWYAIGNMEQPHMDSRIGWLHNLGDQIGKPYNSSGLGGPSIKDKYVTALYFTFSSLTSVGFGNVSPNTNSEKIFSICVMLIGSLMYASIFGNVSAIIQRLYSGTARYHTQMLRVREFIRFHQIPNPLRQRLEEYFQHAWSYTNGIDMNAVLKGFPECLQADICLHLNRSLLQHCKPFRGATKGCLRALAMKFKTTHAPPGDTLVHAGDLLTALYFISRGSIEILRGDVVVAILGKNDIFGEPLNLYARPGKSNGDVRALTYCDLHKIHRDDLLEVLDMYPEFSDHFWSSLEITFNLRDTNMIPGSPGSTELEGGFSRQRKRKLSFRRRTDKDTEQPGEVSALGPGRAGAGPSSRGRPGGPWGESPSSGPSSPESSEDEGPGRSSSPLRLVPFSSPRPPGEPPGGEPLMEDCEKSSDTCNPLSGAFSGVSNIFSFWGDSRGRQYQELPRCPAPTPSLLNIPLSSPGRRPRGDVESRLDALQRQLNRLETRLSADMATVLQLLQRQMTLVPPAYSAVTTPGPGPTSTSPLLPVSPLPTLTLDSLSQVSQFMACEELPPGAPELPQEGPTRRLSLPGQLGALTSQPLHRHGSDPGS

[3] = target: T1, Protein cereblon/Interleukin-1 receptor-associated kinase 4; assay: PROTAC activity at CRBN/IRAK4 in human THP-1 cells assessed as induction of IRAK4 degradation incubated for 24 hrs by HiBiT lytic reagent based analysis relative to control; type: cell-based
Target sequence in this assay (Q96SW2 whole entry, looked up): as the sequence (Q96SW2 whole entry) above
Target sequence in this assay (Q9NWZ3 whole entry, looked up): as the sequence (Q9NWZ3 whole entry) above

[4] = Metabolic stability in mouse liver microsome assessed as half life at 1 uM measured up to 60 mins in presence of NADPH by LC-MS/MS analysis; type: ADME; details: liver microsomes
[5] = Metabolic stability in human liver microsome assessed as half life at 1 uM measured up to 60 mins in presence of NADPH by LC-MS/MS analysis; type: ADME; details: liver microsomes
[6] = Metabolic stability in dog liver microsome assessed as half life at 1 uM measured up to 60 mins in presence of NADPH by LC-MS/MS analysis; type: ADME, Canis lupus familiaris; details: liver microsomes
hERG (KCNH2) [7] = target: T2, hERG (KCNH2) (Homo sapiens, UniProt Q12809); assay: Inhibition of hERG expressed in HEK293 cells at 1 uM by manual patch clamp assay relative to control; type: toxicity, cell-based; details: HEK293 cells expressing hERG
T2 sequence (Q12809 whole entry): as the sequence (Q12809 whole entry) above

[8] = Metabolic stability in cynomolgus monkey liver microsome assessed as half life at 1 uM measured up to 60 mins in presence of NADPH by LC-MS/MS analysis; type: ADME, Macaca fascicularis; details: liver microsomes
hERG (KCNH2) [9] = target: T2, hERG (KCNH2); assay: Inhibition of hERG expressed in HEK293 cells at 3 uM by manual patch clamp assay relative to control; type: toxicity, cell-based; details: HEK293 cells expressing hERG
[10] = Metabolic stability in rat liver microsome assessed as half life at 1 uM measured up to 60 mins in presence of NADPH by LC-MS/MS analysis; type: ADME; details: liver microsomes

DC50 [1] [nM] | Emax [3] [%] | half-life at 1 µM [4] [h] | half-life at 1 µM [5] [h] | half-life at 1 µM [6] [h] | half-life at 1 µM [8] [h] | half-life at 1 µM [10] [h] | Compound | inhibition (INH) [2] [%] | inhibition at 1 µM (hERG (KCNH2) [7]) [%] | inhibition at 3 µM (hERG (KCNH2) [9]) [%]
1.86 | 68 |  |  |  |  |  | Cn1c(=O)n(C2CCC(=O)NC2=O)c2cccc(CCCOCCNCCN3CCC4(CC3)Cc3cc(NC(=O)c5cnn6cccnc56)c(N5CCC(CO)CC5)cc3O4)c21 (stereo not drawn) | 2 |  | 
7.79 | 90 | 0.55 | 0.517 | 0.583 |  |  | Cn1c(=O)n(C2CCC(=O)NC2=O)c2cccc(C#CCO[C@H]3CC[C@@H](CN4CCC5(Cc6cc(NC(=O)c7cnn8cccnc78)c(N7CCC(CO)CC7)cc6O5)C4)CC3)c21 (stereo partly drawn) |  | 29 | 
6.92 | 68 |  |  |  |  |  | CN(CCCO)c1cc2c(cc1NC(=O)c1cnn3cccnc13)CC1(CCN(C[C@H]3CC[C@H](OCC#Cc4cccc5c4n(C)c(=O)n5C4CCC(=O)NC4=O)CC3)CC1)O2 (stereo partly drawn) |  |  | 
6.44 | 44 |  |  |  |  |  | CN(CCO)c1cc2c(cc1NC(=O)c1cnn3cccnc13)CC1(CCN(C[C@H]3CC[C@H](OCC#Cc4cccc5c4n(C)c(=O)n5C4CCC(=O)NC4=O)CC3)CC1)O2 (stereo partly drawn) |  |  | 
3.69 | 86 | 2.05 | 0.333 | 0.967 |  |  | Cn1c(=O)n(C2CCC(=O)NC2=O)c2cccc(C#CCO[C@H]3CC[C@@H](CN4CCC5(CC4)Cc4cc(NC(=O)c6coc7cccnc67)c(N6CCC(CO)CC6)cc4O5)CC3)c21 (stereo partly drawn) |  | 29 | 
9.37 | 49 |  |  |  |  |  | Cn1c(=O)n(C2CCC(=O)NC2=O)c2cccc(C#CCO[C@H]3CC[C@H](CN4CCC5(CC4)Cc4cc(NC(=O)c6cnn7cccnc67)c(OCCC(C)(C)O)cc4O5)CC3)c21 (stereo partly drawn) |  |  | 
2.81 | 89 | 1.98 | > 3.07 | > 3.07 | 1.07 | 2.45 | Cn1c(=O)n(C2CCC(=O)NC2=O)c2cccc(C#CCO[C@H]3CC[C@H](CN4CCC5(CC4)Cc4cc(NC(=O)c6cnn7cc(C#N)cnc67)c(N6CCC(CO)CC6)cc4O5)CC3)c21 (stereo partly drawn) |  |  | 29
6.02 | 85 | 1.68 | 1.15 | > 3.07 |  |  | Cc1cc(-c2nc(C(=O)Nc3cc4c(cc3N3CCC(CO)CC3)OC3(CCN(C[C@H]5CC[C@H](OCC#Cc6cccc7c6n(C)c(=O)n7C6CCC(=O)NC6=O)CC5)CC3)C4)co2)ccn1 (stereo partly drawn) |  | 12 | 
10.4 | 78 |  |  |  |  |  | Cn1c(=O)n(C2CCC(=O)NC2=O)c2cccc(C#CCO[C@H]3CC[C@H](CN4CCC5(CC4)Oc4cc(NC(=O)c6cnn7cccnc67)c(N6CCC(CO)CC6)cc4O5)CC3)c21 (stereo partly drawn) |  |  | 
14.8 | 91 | 0.267 | 0.117 | 0.0167 |  |  | Cn1c(=O)n(C2CCC(=O)NC2=O)c2cccc(C#CCO[C@H]3CC[C@@](F)(CN4CCC5(CC4)Cc4cc(NC(=O)c6cnn7cccnc67)c(N6CCC(CO)CC6)cc4O5)CC3)c21 (stereo partly drawn) |  | 8 | 
8.48 | 46 |  |  |  |  |  | Cn1c(=O)n(C2CCC(=O)NC2=O)c2cccc(C#CCO[C@H]3CC[C@H](CN4CCC5(CCc6cc(NC(=O)c7cnn8cccnc78)c(N7CCC(CO)CC7)cc6O5)CC4)CC3)c21 (stereo partly drawn) |  |  | 
1.66 | 95 |  |  |  |  |  | Cn1c(=O)n(C2CCC(=O)NC2=O)c2cccc(CN3CC4(CCN(CCN5CCC6(CC5)Cc5cc(NC(=O)c7cnn8cccnc78)c(N7CCC(CO)CC7)cc5O6)CC4)C3)c21 (stereo not drawn) | 6 |  | 
2.18 | 88 | > 3.07 | 0.383 | 1.47 | 0.0333 | 1.47 | Cn1c(=O)n(C2CCC(=O)NC2=O)c2cccc(C#CCOC3CCN(CCN4CCC5(CC4)Cc4cc(NC(=O)c6cnn7cccnc67)c(N6CCC(CO)CC6)cc4O5)CC3)c21 (stereo not drawn) |  |  | 
 | 88 | > 3.07 | > 3.07 | > 3.07 |  |  | Cn1c(=O)n(C2CCC(=O)NC2=O)c2cccc(C#CCO[C@H]3CC[C@](F)(CN4CCC5(CC4)Cc4cc(NC(=O)c6cnn7cccnc67)c(N6CCC(CO)CC6)cc4O5)CC3)c21 (stereo partly drawn) |  |  | 8
2.77 | 78 |  |  |  |  |  | Cn1c(=O)n(C2CCC(=O)NC2=O)c2cccc(C#CCO[C@H]3CC[C@H](CN4CCC5(CC4)Cc4cc(NC(=O)c6cnn7cccnc67)c(N6CCC(CO)CC6)cc4C5)CC3)c21 (stereo partly drawn) |  |  | 46
3.32 | 90 | 1.3 | > 3.07 | > 3.07 | > 3.07 | > 3.07 | Cn1c(=O)n(C2CCC(=O)NC2=O)c2cccc(C#CCO[C@H]3CC[C@H](CN4CCC5(CC4)Cc4cc(NC(=O)c6cnn7cc(CO)cnc67)c(N6CCC(CO)CC6)cc4O5)CC3)c21 (stereo partly drawn) |  | 4 | 
2 | 84 | > 3.07 | 1.67 | > 3.07 |  |  | Cn1c(=O)n(C2CCC(=O)NC2=O)c2cccc(C#CCO[C@H]3CC[C@H](CN4CCC5(Cc6cc(NC(=O)c7cnn8cccnc78)c(N7CCC(CO)CC7)cc6O5)C4)CC3)c21 (stereo partly drawn) |  | 1 | 
1.53 | 95 | 0.65 | 0.833 | > 3.07 | 1.17 | 0.7 | Cn1c(=O)n(C2CCC(=O)NC2=O)c2cccc(CN3CCC4(CC3)CN(CCN3CCC5(CC3)Cc3cc(NC(=O)c6cnn7cccnc67)c(N6CCC(CO)CC6)cc3O5)C4)c21 (stereo not drawn) | 34 |  | 
13 | 83 |  |  |  |  |  | Cn1c(=O)n(C2CCC(=O)NC2=O)c2cccc(C#CCO[C@H]3CC[C@H](CN4CCC5(CC4)Cc4cc(NC(=O)c6cnn7cccnc67)c(OC(F)F)cc4O5)CC3)c21 (stereo partly drawn) |  |  | 
6.38 | 85 |  |  |  |  |  | Cn1c(=O)n(C2CCC(=O)NC2=O)c2cccc(C#CCO[C@H]3CC[C@H](CN4CCC5(CC4)Cc4cc(NC(=O)c6cnn7cccnc67)c(N6CCC(F)CC6)cc4O5)CC3)c21 (stereo partly drawn) |  |  | 
2.27 | 87 | 1.3 | > 3.07 | > 3.07 | 1.87 | 2.1 | Cn1c(=O)n(C2CCC(=O)NC2=O)c2cccc(C#CCO[C@H]3CC[C@H](CN4CCC5(CC4)Cc4cc(NC(=O)c6cnn7cc(Cl)cnc67)c(N6CCC(CO)CC6)cc4O5)CC3)c21 (stereo partly drawn) |  |  | 2
1.17 | 89 |  |  |  |  |  | Cn1c(=O)n(C2CCC(=O)NC2=O)c2cccc(C#CCOCCNCCN3CCC4(CC3)Cc3cc(NC(=O)c5cnn6cccnc56)c(N5CCC(CO)CC5)cc3O4)c21 (stereo not drawn) | 8 |  | 
2.78 | 86 | 1.05 | 0.65 | > 3.07 |  |  | Cn1c(=O)n(C2CCC(=O)NC2=O)c2cccc(C#CCO[C@H]3CC[C@H](C(=O)N4CCC5(CC4)Cc4cc(NC(=O)c6cnn7cccnc67)c(N6CCC(CO)CC6)cc4O5)CC3)c21 (stereo partly drawn) |  | 2 | 
1.52 | 87 | > 3.07 | > 3.07 | > 3.07 |  |  | Cc1cnc2c(C(=O)Nc3cc4c(cc3N3CCC(CO)CC3)OC3(CCN(C[C@H]5CC[C@H](OCC#Cc6cccc7c6n(C)c(=O)n7C6CCC(=O)NC6=O)CC5)CC3)C4)cnn2c1 (stereo partly drawn) |  |  | 17
1000 | 20 |  |  |  |  |  | Cn1c(=O)n(C2CCC(=O)NC2=O)c2cccc(C#CCO[C@H]3CC[C@H](CN4CCC5(CC4)Oc4cc(N6CCC(CO)CC6)c(NC(=O)c6cnn7cccnc67)cc4C5=O)CC3)c21 (stereo partly drawn) |  |  | 
3.9 | 62 |  |  |  |  |  | COCC1CCN(c2cc3c(cc2NC(=O)c2cnn4cccnc24)CC2(CCN(C[C@H]4CC[C@H](OCC#Cc5cccc6c5n(C)c(=O)n6C5CCC(=O)NC5=O)CC4)CC2)O3)CC1 (stereo partly drawn) |  |  | 

Compound | DC50 [1] [nM] | Emax [3] [%] | half-life at 1 µM [4] [h] | half-life at 1 µM [5] [h] | half-life at 1 µM [6] [h] | half-life at 1 µM [8] [h] | half-life at 1 µM [10] [h] | inhibition (INH) [2] [%] | inhibition at 1 µM (hERG (KCNH2) [7]) [%] | inhibition at 3 µM (hERG (KCNH2) [9]) [%]
Cn1c(=O)n(C2CCC(=O)NC2=O)c2cccc(C#CCN3CCN(CC(=O)N4CCC5(CC4)Cc4cc(NC(=O)c6cnn7cccnc67)c(N6CCC(CO)CC6)cc4O5)CC3)c21 (stereo not drawn) | 2.76 |  | 1.4 | 0.05 | 1.22 |  |  |  |  | 18
Cn1c(=O)n(C2CCC(=O)NC2=O)c2cccc(C#CCO[C@H]3CC[C@@H](CN4CCC5(CC4)Cc4cc(NC(=O)c6cnn7cccnc67)c(N6CCC(CO)CC6)cc4O5)CC3)c21 (stereo partly drawn) | 3.44 | 89 | 1.98 | 0.817 | 0.0167 | 0.183 | 1.47 |  | 34 | 
Cn1c(=O)n(C2CCC(=O)NC2=O)c2cccc(C#CCOC3CCN(C(=O)CN4CCC5(CC4)Cc4cc(NC(=O)c6cnn7cccnc67)c(N6CCC(CO)CC6)cc4O5)CC3)c21 (stereo not drawn) | 1.92 |  | 0.35 | 0.0667 | 0.1 |  |  |  |  | 
Cn1c(=O)n(C2CCC(=O)NC2=O)c2cccc(C#CCOC3CCN(CC(=O)N4CCC5(CC4)Cc4cc(NC(=O)c6cnn7cccnc67)c(N6CCC(CO)CC6)cc4O5)CC3)c21 (stereo not drawn) | 2.18 |  | 1.67 | 0.15 | 0.2 |  |  |  |  | 8
